Experimental data as given in patent EP3708565A1, “PYRIMIDINYLOXYPHENYLAMIDINES AND THE USE THEREOF AS FUNGICIDES” (Bayer AG, priority 2020, dated 2020).

Assays:
[1] = LogP measurement by HPLC on reversed phase columns (EEC directive 79/831 Annex V.A8); type: physicochemical
Method: If more than one LogP value is available within the same method, all the values are given and separated by "+".
Lambda-max-values were determined using UV-spectra from 200 nm to 400 nm and the peak values of the chromatographic signals.

Puccinia recondita = assay: in vivo preventive test on Puccinia recondita (brown rust on wheat); settings: for pest or weed control at 500 ppm: Puccinia recondita, 264 h, 500 ppm of active ingredient, young wheat plants sprayed, inoculated after 24 hours, evaluated 11 days after the inoculation, read-out: efficacy; for efficacy: 500 ppm
Method: Example: in vivo preventive test on Puccinia recondita (brown rust on wheat)
(§1) The active ingredients were made soluble and homogenized in a mixture of Dimethyl sulfoxide/Acetone/ /Tween® 80 and then diluted in water to the desired concentration.
The young plants of wheat were treated by spraying the active ingredient prepared as described above. Control plants were treated only with an aqueous solution of Acetone/Dimethyl sulfoxide/ Tween® 80.
After 24 hours, the plants were contaminated by spraying the leaves with an aqueous suspension of Puccinia recondita spores. The contaminated wheat plants were incubated for 24 hours at 20°C and at 100% relative humidity and then for 10 days at 20°C and at 70-80% relative humidity.
The test was evaluated 11 days after the inoculation. 0% means an efficacy which corresponds to that of the control plants while an efficacy of 100% means that no disease was observed.

Sphaerotheca fuliginea = assay: in vivo preventive test on Sphaerotheca fuliginea (powdery mildew on cucurbits); settings: 500 ppm of active ingredient, young gherkin plants sprayed, inoculated after 24 hours, evaluated 8 days after the inoculation; for pest or weed control at 500 ppm: Podosphaera fuliginea, 192 h, read-out: efficacy
Method: Example: in vivo preventive test on Sphaerotheca fuliginea (powdery mildew on cucurbits)
as §1
The young plants of gherkin were treated by spraying the active ingredient prepared as described above. Control plants were treated only with an aqueous solution of Acetone/Dimethyl sulfoxide/ […].
After 24 hours, the plants were contaminated by spraying the leaves with an aqueous suspension of Sphaerotheca fuliginea spores. The contaminated gherkin plants were incubated for 8 days at 20°C and at 70-80% relative humidity.
The test was evaluated 8 days after the inoculation. 0% means an efficacy which corresponds to that of the control plants while an efficacy of 100% means that no disease was observed.

Phakospora pachyrhizi = assay: in vivo preventive test on Phakospora pachyrhizi (soybean rust); settings: for pest or weed control at 500 ppm: Glycine max, 288 h, 500 ppm of active ingredient, young soybean plants sprayed, inoculated after 24 hours, evaluated 12 days after the inoculation, read-out: efficacy; for efficacy: 500 ppm
Method: Example: in vivo preventive test on Phakospora pachyrhizi (soybean rust)
as §1
The young plants of soybean were treated by spraying the active ingredient prepared as described above. Control plants were treated only with an aqueous solution of Acetone/Dimethyl sulfoxide/ […].
After 24 hours, the plants were contaminated by spraying the leaves with an aqueous suspension of Phakosporapachyrhizi spores. The contaminated soybean plants were incubated for 24 hours at 24°C and at 100% relative humidity and then for 11 days at 24°C and at 70-80% relative humidity.
The test was evaluated 12 days after the inoculation. 0% means an efficacy which corresponds to that of the control plants while an efficacy of 100% means that no disease was observed.

[2] = reversed phase HPLC column, method [a]: LC-UV, acidic range, 0.1% formic acid in water and acetonitrile as eluent
[3] = reversed phase HPLC column, method [b]: LC-UV, neutral range, 0.001 molar ammonium acetate solution in water and acetonitrile as eluent
[4] = method [a]: LC-UV, acidic range, 0.1% formic acid in water and acetonitrile as eluent
[5] = method [b]: LC-UV, neutral range, 0.001 molar ammonium acetate solution in water and acetonitrile as eluent

Compound	chromatographic logP [1, 2]	pest or weed control at 500 ppm (Puccinia recondita) [%]	pest or weed control at 500 ppm (Sphaerotheca fuliginea) [%]	pest or weed control at 500 ppm (Phakospora pachyrhizi) [%]	chromatographic logP [1, 3]	chromatographic logP [1, 4]	chromatographic logP [1, 5]	efficacy (Puccinia recondita)	efficacy (Sphaerotheca fuliginea)	efficacy (Phakospora pachyrhizi)
CCN(C)C=Nc1cc(C)c(Oc2ccnc(SC3CCCC3)n2)cc1C [I.012, N'-[4-(2-cyclopentylsulfanylpyrimidin-4-yl)oxy-2,5-dimethylphenyl]-N-ethyl-N-methylmethan-imidamide]	1.75	≥ 70	≥ 70	≥ 70	–	–	–	–	–	–
CCN(C)C=Nc1cc(C)c(Oc2cc(SC(C)(C)C)nc(C)n2)cc1C [I.023, N'-[4-(6-tert-butylsulfanyl-2-methylpyrimidin-4-yl)oxy-2,5-dimethylphenyl]-N-ethyl-N-methyl-methanimidamide]	1.99	≥ 70	≥ 70	≥ 70	–	–	–	–	–	–
CCN(C)C=Nc1cc(C)c(Oc2ccnc(SCCC(F)(F)F)n2)cc1C [I.013, N'-[2,5-dimethyl-4-[2-(3,3,3-trifluoropropylsulfanyl)pyrimidin-4-yl]oxyphenyl]-N-ethyl-N-methylmethanimidamide]	1.58	≥ 70	≥ 70	≥ 70	–	–	–	–	–	–
CCN(C)C=Nc1cc(Br)c(Oc2ccnc(Sc3ccccc3)n2)cc1C [I.037, N'-[5-bromo-2-methyl-4-(2-phenylsulfanylpyrimidin-4-yl)oxyphenyl]-N-ethyl-N-methylmethan-imidamide]	1.69	≥ 70	≥ 70	≥ 70	4.8	–	–	–	–	–
CCCSc1nccc(Oc2cc(C)c(N=CN(C)CC)cc2Br)n1 [I.015, N'-[5-bromo-2-methyl-4-(2-propylsulfanylpyrimidin-4-yl)oxyphenyl]-N-ethyl-N-methylmethan-imidamide]	1.66	≥ 70	≥ 70	≥ 70	4.86	–	–	–	–	–
CCN(C)C=Nc1cc(C)c(Oc2ccnc(SCCC(C)C)n2)cc1C [I.002, N'-[2,5-dimethyl-4-[2-(3-methylbutylsulfanyl)pyrimidin-4-yl]oxyphenyl]-N-ethyl-N-methyl-methanimidamide]	1.9	≥ 70	≥ 70	≥ 70	5.66	–	–	–	–	–
CCN(C)C=Nc1cc(C)c(Oc2cc(C)nc(SC(C)C)n2)cc1C [I.022, N'-[2,5-dimethyl-4-(6-methyl-2-propan-2-ylsulfanylpyrimidin-4-yl)oxyphenyl]-N-ethyl-N-methylmethanimidamide]	1.69	≥ 70	≥ 70	≥ 70	–	–	–	–	–	–
CCN(C)C=Nc1cc(C)c(Oc2cc(C)nc(SCC(C)C)n2)cc1C [I.021, N'-[2,5-dimethyl-4-[6-methyl-2-(2-methylpropylsulfanyl)pyrimidin-4-yl]oxyphenyl]-N-ethyl-N-methylmethanimidamide]	1.84	≥ 70	≥ 70	≥ 70	–	–	–	–	–	–
CCSc1nc(C)cc(Oc2cc(C)c(N=CN(C)CC)cc2C)n1 [I.019, N-ethyl-N'-[4-(2-ethylsulfanyl-6-methylpyrimidin-4-yl)oxy-2,5-dimethylphenyl]-N-methyl-methanimidamide]	1.52	≥ 70	≥ 70	≥ 70	–	–	–	–	–	–
CCN(C)C=Nc1cc(C)c(Oc2ccnc(SCC[Si](C)(C)C)n2)cc1C [I.043, N'-[2,5-dimethyl-4-[2-(2-trimethylsilylethylsulfanyl)pyrimidin-4-yl]oxyphenyl]-N-ethyl-N-methylmethanimidamide]	–	≥ 70	≥ 70	≥ 70	–	2.17	–	–	–	–
CCN(C)C=Nc1cc(C#N)c(Oc2ccnc(C(C)(C)C)n2)cc1C [I.044, N'-[4-(2-tert-butylpyrimidin-4-yl)oxy-5-cyano-2-methylphenyl]-N-ethyl-N-methylmethanimid-amide]	–	–	–	–	–	1.41	4.29	at least 70%	at least 70%	at least 70%
CCN(C)C=Nc1cc(C(F)F)c(Oc2ccnc(SCC(C)C)n2)cc1C [I.025, N'-[5-(difluoromethyl)-2-methyl-4-[2-(2-methylpropylsulfanyl)pyrimidin-4-yl]oxyphenyl]-N-ethyl-N-methylmethanimidamide]	1.69	≥ 70	≥ 70	≥ 70	–	–	–	–	–	–
CCCSc1nccc(Oc2cc(C)c(N=CN(C)CC)cc2C)n1 [I.029, N'-[2,5-dimethyl-4-(2-propylsulfanylpyrimidin-4-yl)oxyphenyl]-N-ethyl-N-methylmethanimid-amide]	–	–	–	–	–	1.46	4.61	at least 70%	at least 70%	at least 70%
CCN(C)C=Nc1cc(C)c(Oc2ccnc(Sc3cccc(F)c3)n2)cc1C [I.009, N-ethyl-N'-[4-[2-(3-fluorophenyl)sulfanylpyrimidin-4-yl]oxy-2,5-dimethylphenyl]-N-methyl-methanimidamide]	1.66	≥ 70	≥ 70	≥ 70	–	–	–	–	–	–
CCN(C)C=Nc1cc(Br)c(Oc2ccnc(SC(C)(C)C)n2)cc1C [I.001, N'-[5-bromo-4-(2-tert-butylsulfanylpyrimidin-4-yl)oxy-2-methylphenyl]-N-ethyl-N-methyl-methanimidamide]	1.72	≥ 70	≥ 70	≥ 70	4.95	–	–	–	–	–
CCN(C)C=Nc1cc(C)c(Oc2ccnc(SC3CCCCC3)n2)cc1C [I.011, N'-[4-(2-cyclohexylsulfanylpyrimidin-4-yl)oxy-2,5-dimethylphenyl]-N-ethyl-N-methylmethan-imidamide]	1.86	≥ 70	≥ 70	≥ 70	–	–	–	–	–	–
CCN(C)C=Nc1cc(C)c(Oc2ccnc(C(F)(F)F)n2)cc1C [I.030, N'-[2,5-dimethyl-4-[2-(trifluoromethyl)pyrimidin-4-yl]oxyphenyl]-N-ethyl-N-methylmethan-imidamide]	1.24	≥ 70	≥ 70	≥ 70	3.82	–	–	–	–	–
CCN(C)C=Nc1cc(C)c(Oc2ccnc(OC3CCCC3)n2)cc1C [I.041, N'-[4-(2-cyclopentyloxypyrimidin-4-yl)oxy-2,5-dimethylphenyl]-N-ethyl-N-methylmethanimid-amide]	–	–	–	–	–	1.6	4.67	at least 70%	at least 70%	at least 70%
CCSc1nccc(Oc2cc(C)c(N=CN(C)CC)cc2C)n1 [I.027, N-ethyl-N'-[4-(2-ethylsulfanylpyrimidin-4-yl)oxy-2,5-dimethylphenyl]-N-methylmethanimid-amide]	–	–	–	–	–	1.27	4.12	at least 70%	at least 70%	at least 70%
CCN(C)C=Nc1cc(C)c(Oc2ccnc(SC(C)(C)C)n2)cc1Cl [I.045, N'-[4-(2-tert-butylsulfanylpyrimidin-4-yl)oxy-2-chloro-5-methylphenyl]-N-ethyl-N-methyl-methanimidamide]	1.63	≥ 70	≥ 70	≥ 70	4.5	–	–	–	–	–
